The values that follow come from paper PMC5967328, “Salvianolic acids from antithrombotic Traditional Chinese Medicine Danshen are antagonists of human P2Y1 and P2Y12 receptors” (Scientific Reports, 2018).

The target of series [1] is T1, P2Y12 receptor (Homo sapiens, UniProt Q9H244). The series is described as follows: [3H]2MeSADP radioligand binding at the P2Y12 receptor (U2OS membranes). Further details: expressed in transfected cells; host or cells: U2OS cells (membrane preparation). The method, then:
The eleven selected components were further examined in radioligand binding and functional assays. We initially tested the eleven compounds by measuring the inhibition of [^3H]2-methylthioadenosine 5′-diphosphate (2MeSADP) binding at the human P2Y12 receptor (Fig. 1b).
(§1) U2Os cells expressing the P2Y1 or P2Y12 receptors were cultured in DMEM supplemented with 10% fetal bovine serum, 100 Units/ml penicillin, 100 µg/ml streptomycin and 2 µmol/ml glutamine. After reaching confluence, cells were detached from plates by scraping into PBS and centrifuged at 250 g for 5 min. The resulting pellets were re-suspended in ice-cold Tris-HCl buffer (50 mM, pH 7.4) and homogenized. After homogenization and suspension, cells were centrifuged at 1000 g for 10 min and the pellet was discarded. The suspension was re-centrifuged at 20,000 g for 60 min at 4 °C. The pellets were re-suspended, split into aliquots and stored at −80 °C. The protein concentration was measured using the Bradford assay. For P2Y1 and P2Y12 receptor binding assays, saturation curves were measured by addition of various concentrations of 50 µl [^3H]2MeSADP (specific activity, 7.5 Ci/mmol; Movarek Biochemicals, Brea, CA) and 100 μl of membrane suspension to a total of 200 μl of total assay volume. Non-specific binding was determined using 10 µM MRS2500 (Tocris; St. Louis, MO) for the P2Y1 receptor and 10 μM SAR216471 (Tocris; St. Louis, MO) for the P2Y12 receptor. For the displacement assay, various concentrations of inhibitors were incubated with [^3H]2MeSADP (1.0 nM for P2Y1; 0.4 nM for P2Y12) and membrane preparations (20 µg/sample) at 25 °C for 60 min. The separation of bound from free radioligand was accomplished by rapid vacuum filtration of the incubation mixture over GF/B filter using a Brandel cell harvester (Brandel Inc., Gaithersburg, MD). Filters were washed two times with 3 ml of ice-cold Tris-HCl buffer, pH 7.5. Radioactivity on the filters was quantified using a Tri-carb Liquid Scintillation Counter (PerkinElmer Life and Analytical Sciences). 2MeSADP was purchased from Sigma (St. Louis, MO). All other materials were from standard commercial sources and of analytical grade. For radioligand binding, calculation of apparent binding affinities, Ki = IC50/(1 + [radioligand]/Kd), was performed using the nonlinear iterative curve-fitting program of Prism (GraphPad Software Inc., San Diego, CA).

Series [2] addresses T2, adrenergic α1B receptor (Homo sapiens, UniProt P35368).
T2 construct: expressed in transfected cells
T2 sequence (P35368 1-520): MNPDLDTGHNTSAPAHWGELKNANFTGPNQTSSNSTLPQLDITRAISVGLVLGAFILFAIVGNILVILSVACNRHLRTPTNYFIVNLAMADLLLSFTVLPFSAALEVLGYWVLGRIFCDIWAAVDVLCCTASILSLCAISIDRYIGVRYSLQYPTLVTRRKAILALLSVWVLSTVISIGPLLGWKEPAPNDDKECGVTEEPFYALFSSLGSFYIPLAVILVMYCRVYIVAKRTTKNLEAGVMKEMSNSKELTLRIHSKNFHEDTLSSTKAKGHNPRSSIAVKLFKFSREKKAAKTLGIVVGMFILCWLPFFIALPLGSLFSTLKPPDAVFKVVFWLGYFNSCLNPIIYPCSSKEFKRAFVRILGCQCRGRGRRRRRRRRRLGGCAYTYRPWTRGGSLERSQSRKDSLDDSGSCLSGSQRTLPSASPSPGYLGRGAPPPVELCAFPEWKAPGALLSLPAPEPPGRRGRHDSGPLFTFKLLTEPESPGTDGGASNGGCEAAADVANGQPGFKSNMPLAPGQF
The series is described as follows: FLIPR agonist and antagonist assays. Type of series: cell-based. The method, then:
For agonist assay: cell line expressing target receptor was seeded in a 384-well black-wall, clear-bottom plate about 18 hours prior to the day of experiment and maintained at 37 °C/5% CO2. Then, 20 μl of dye-loading solution was added into the wells and the plates were subsequently placed into a 37 °C incubator for 60 min, followed by a 15 min incubation at room temperature. At last, 10 μl of compounds or control agonist were added into respective wells of the assay plate during reading in FLIPR.
For antagonist assay: cell line expressing target receptor was seeded in a 384-well black-wall, clear-bottom plate about 18 hours prior to the day of experiment and maintained at 37 °C/5% CO2. Then the dye-loading solution and 10 μl of control antagonist and test samples were added into respectively wells in sequence. The plates were subsequently placed into a 37 °C incubator for 60 min, followed by a 15 min incubation at room temperature. At last, 12.5 μl of control agonist were added into respective wells of the assay plate during reading in FLIPR.
The fun ctional activit y of SAB on the adrener gi c α1B re ceptor we re tested b y […]

In series [3] the target is T1, P2Y12 receptor. The series is described as follows: Antagonism of 2MeSADP-induced inhibition of forskolin-stimulated cAMP accumulation, Schild analysis. The class given is cell-based. Further details: expressed in transfected cells; host or cells: U2OS cells. The method, then: The functional antagonism of these three salvianolic acids against the P2Y12 receptor was measured by their effect on agonist-induced inhibition of forskolin-stimulated cyclic AMP accumulation in P2Y12 receptor-expressing U2OS cells. For example, in a concentration-dependent manner, SAA shifted the agonist response curve to the right without affecting its maximum agonist effect (Fig. 2b). This observation is consistent with competitive antagonism, but allosteric antagonism cannot be excluded. Schild analysis of the antagonism yielded KB values of 24.2 ± 5.9, 33.6 ± 6.4 and 23.7 ± 4.5 µM for SAA, SAB and SAC, respectively (Fig. 2c).
U2Os cells expressing the P2Y12 receptor were cultured in DMEM medium containing 10% fetal bovine serum, 100 units/ml penicillin, 100 µg/ml streptomycin and 2 µmol/ml glutamine. For the assay of cAMP accumulation, cells were plated in 96-well plates in 100 µl medium overnight. Cells were then treated with assay buffer containing rolipram ([…]) and antagonists for 20 min followed by the addition of agonists and incubate for 10 min. After 10 min incubation with agonist, Forskolin (10 μM) was added to the mixture and the incubation was continued for another 10 min. The reaction was terminated upon removal of the supernatant and addition of 100 µl Tween-20 (0.3%). Intracellular cAMP levels were measured with an ALPHAScreen cAMP assay kit as instructed by the manufacturer (PerkinElmer). Binding and functional parameters were calculated using Prism 7.0 software (GraphPAD, San Diego, CA, USA). Data were expressed as mean ± sem.
A general note: Cyclic AMP is a second messenger, typically raised through Gs and lowered through Gi signalling.

The target in series [4] is T3, α1B adrenergic receptor (Homo sapiens, UniProt P35368).
T3 construct: Psychoactive Drug Screening Program (PDSP)
T3 sequence (P35368 1-520): T2 sequence (P35368 1-520)
The series can be described thus: [3H]Prazosin binding assay (PDSP). The source says:
We also tested if SAA, SAB and SAC are promiscuously binding compounds, due to the fact that they all have multiple phenolic groups and are thus potentially PAINS[36]. To find other possible targets of the three compounds, we evaluated their potential binding to 45 diverse receptors, transporters and ion channels (human, unless noted) using radioligand binding assays via the Psychoactive Drug Screening Program (PDSP) (Table S1)[37].
Figure S3. Binding activit y of SAB (compound 44297) to the α1B adrenergic receptor was measured b y [ 3H]Prazosin binding assays for three repeats (a-c). Prazosin is an inverse agonist of the α1B adrenergic receptor. Th e av erage Ki o f SAB was determined […]
(§2) (1 picture or pasted object on this page, not shown here)

Series [5] addresses T4, P2Y1 receptor (Homo sapiens, UniProt P47900). The series can be described thus: [3H]2MeSADP radioligand binding at the P2Y1 receptor (U2OS membranes). Further details: expressed in transfected cells; host or cells: U2OS cells (membrane preparation). The settings on record: for inhibitory effect on [3H]2MeSADP binding to the P2Y1 receptor (initial binding results): in words; for IC50: average. The method, then: (§3) Both P2Y1 and P2Y12 receptors play important roles in platelet aggregation. Therefore, we also tested the potential effects of SAA, SAB and SAC on the P2Y1 receptor. […] SAA and SAC antagonized 2MeSADP-induced accumulation of inositol 1-phosphate (IP-1) (Fig. 2e). KB values calculated by Schild analysis for the P2Y1 receptor were 9.1 ± 1.5 and 15.6 ± 2.0 µM for SAA and SAC, respectively (Fig. 2f). Thus, the Schild analysis of the antagonist potencies of SAA and SAC for Gq-coupled P2Y1 and Gi-coupled P2Y12 receptors was consistent with their binding affinities measured in the radioligand assays.
as §1
Figure S2. The effects of Tween -20 on the inhibition by SAA (a) and SAC (b) of
[3H]2MeSADP binding to the human P2Y1 recept or. Data are ex pressed Me an ± SD from
2- 3 independent experiments. The average IC50 values of SAA in the absence and
presence of 0.01% Tween- 20 are 21.2 and 19.3 μM, respectivel y. The IC50 values of
SAC in the absence and p resence of 0.01% Tween- 20 are 29.4 and 23.7 μM, respectivel y.
The c ritical micelle concentration (CMC) of Tween -20 is 0.0074%.
as §2

Details of series [6]: method as in PMID 21569331. The settings on record: rat plasma, cited from earlier work.
Series [7] deals with T4, P2Y1 receptor. The series can be described thus: Antagonism of 2MeSADP-induced IP-1 accumulation, Schild analysis. The class given is cell-based. Further details: expressed in transfected cells; host or cells: U2OS cells. The method, then: as §3
Inositol 1-phosphate (IP-1) was measured using the IP-One Tb HTRF kit (Cisbio Bioassays, Bedford, MA) as described previously[60],[61]. Briefly, after overnight growth, U2Os cells expressing the P2Y1 receptor were first treated with an antagonist for 20 min before the treatment with agonist and incubated for another 60 min. IP-1 detection reagents were added as instructed by the manual from the manufacturer. The assay plates were read on a Mithras LB940 reader (Berthold Technologies, Oak Ridge, TN) using a time-resolved fluorescence ratio (665/620 nm).

Entries after “also recorded” stand apart in the source; their conditions may differ. Where two headings read alike, the source gives them in different places.

T4 sequence (P47900 whole entry): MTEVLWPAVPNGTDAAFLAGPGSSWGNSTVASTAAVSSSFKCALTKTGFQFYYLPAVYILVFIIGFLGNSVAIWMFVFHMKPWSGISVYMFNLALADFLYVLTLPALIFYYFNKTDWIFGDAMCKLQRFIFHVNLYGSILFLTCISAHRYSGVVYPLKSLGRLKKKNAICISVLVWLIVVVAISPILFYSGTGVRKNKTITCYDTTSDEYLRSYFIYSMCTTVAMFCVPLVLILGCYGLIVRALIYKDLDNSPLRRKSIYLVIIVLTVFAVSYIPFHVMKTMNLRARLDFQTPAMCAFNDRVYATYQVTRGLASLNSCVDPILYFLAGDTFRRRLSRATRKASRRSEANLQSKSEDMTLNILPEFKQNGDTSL
T1 sequence (Q9H244 whole entry): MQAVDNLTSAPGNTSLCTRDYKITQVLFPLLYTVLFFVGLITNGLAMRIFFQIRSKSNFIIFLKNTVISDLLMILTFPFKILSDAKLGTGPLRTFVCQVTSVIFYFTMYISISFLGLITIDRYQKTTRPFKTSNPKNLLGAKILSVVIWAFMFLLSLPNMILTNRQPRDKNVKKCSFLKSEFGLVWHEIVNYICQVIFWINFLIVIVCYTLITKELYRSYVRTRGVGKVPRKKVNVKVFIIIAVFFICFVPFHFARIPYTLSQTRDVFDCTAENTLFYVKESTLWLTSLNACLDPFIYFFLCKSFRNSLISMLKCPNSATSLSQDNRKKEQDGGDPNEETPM

As for `O=C(C=Cc1ccc(O)c2c1C(C(=O)OC(Cc1ccc(O)c(O)c1)C(=O)O)C(c1ccc(O)c(O)c1)O2)OC(Cc1ccc(O)c(O)c1)C(=O)O` (stereo not shown) [SAB, salvianolic acid B], the Ki worked out at 36.4 ± 20.3 µM in series [1] and 6.26 ± 1.46 µM in series [4]. Besides, the “inhibition of [3H]2MeSADP binding at the human P2Y12 receptor” value (from here on “inhibition of [3H]2MeSADP binding”) in series [1] (100 µM compound) is listed as “significant inhibitory effect”. Also, the “agonist activity on α1B” value in series [2] (FLIPR agonist assay) was “did not show agonist activity; also recorded: neither agonist nor antagonist”. Besides, in series [2] (FLIPR antagonist assay), the “antagonist activity on α1B” value was “did not show antagonist activit y; also recorded: neither agonist nor antagonist”. In series [3], this compound came in with a Kb of 33.6 ± 6.4 µM. In addition, the “inhibitory effect on [3H]2MeSADP binding to the P2Y1 receptor (initial binding results)” value (“inhibitory effect on [3H]2MeSADP binding” for short) in series [5] is listed as “significantly weaker”. In addition, the t1/2 entry in series [6] (100 mg/kg, i.v.) was “about 105 min”; in series [6] (500 mg/kg, p.o.), 4.13 h.

For the compound `O=C(O)Cc1c(/C=C/C(=O)O[C@H](Cc2ccc(O)c(O)c2)C(=O)O)ccc(O)c1O` [salvianolic acid D], the “inhibition of [3H]2MeSADP binding” value in series [1] (100 µM compound) is listed as 33.5 ± 8.6%.

As for `O=C(/C=C/c1ccc(O)c(O)c1)O[C@H](Cc1ccc(O)c(O)c1)C(=O)O` [rosmarinic acid], testing at 100 µM in series [1] (100 µM compound) gave an inhibition of 31.6 ± 6.2%.

In the case of `O=C(/C=C/c1ccc(O)c(O)c1/C=C/c1ccc(O)c(O)c1)O[C@H](Cc1ccc(O)c(O)c1)C(=O)O` [SAA, salvianolic acid A], the inhibition constant Ki turned out to be 20.3 ± 1.5 µM in series [1] and 14.7 ± 2.4 µM in series [5]. Moreover, the “inhibition of [3H]2MeSADP binding” value in series [1] (100 µM compound) was “significant inhibitory effect”. For the same compound, the Kb came out at 9.1 ± 1.5 µM in series [7] and 24.2 ± 5.9 µM in series [3]. Besides, the IC50 was determined as 21.2 µM in series [5] (IC50, inhibition of [3H]2MeSADP binding to human P2Y1 receptor, absence of Tween-20) and 19.3 µM in series [5] (IC50, inhibition of [3H]2MeSADP binding to human P2Y1 receptor, presence of 0.01% Tween-20). Also, in series [5], the “inhibitory effect on [3H]2MeSADP binding” value is listed as “substantial inhibitory effect”. Moreover, in series [6] (100 mg/kg, p.o.), the t1/2 is 3.28 h.

In the case of `O=C(/C=C/c1ccc(O)c2oc(-c3ccc(O)c(O)c3)cc12)O[C@H](Cc1ccc(O)c(O)c1)C(=O)O` [SAC, salvianolic acid C], the “inhibition of [3H]2MeSADP binding” value in series [1] (100 µM compound) was “significant inhibitory effect”. Further, the Ki came to 15.6 ± 6.5 µM in series [1] (full inhibition curves vs [3H]2MeSADP (0.4 nM), read-out: Ki, P2Y12 receptor binding) and 23.3 ± 4.5 µM in series [5] (vs [3H]2MeSADP (1.0 nM), read-out: Ki, P2Y1 receptor binding). The Kb in series [7] (U2OS cells expressing P2Y1, IP-1 accumulation, read-out: KB (Schild analysis), P2Y1 receptor) stood at 15.6 ± 2 µM; in series [3], 23.7 ± 4.5 µM. The IC50 was determined as 29.4 µM in series [5] (absence of Tween-20, read-out: IC50, inhibition of [3H]2MeSADP binding to human P2Y1 receptor) and 23.7 µM in series [5] (presence of 0.01% Tween-20, read-out: IC50, inhibition of [3H]2MeSADP binding to human P2Y1 receptor). The “inhibitory effect on [3H]2MeSADP binding” value in series [5] is listed as “substantial inhibitory effect”.

As a reminder, the Ki is the dissociation constant of the complex between target and ligand, obtained from inhibition or displacement. Usually Kb stands for the equilibrium dissociation constant of an antagonist, usually derived from a functional assay. Usually inhibition stands for the change of the read-out against control, counted positive when it falls. The low end stands for little suppression, the high end for strong suppression. The IC50 is the midpoint of a concentration-inhibition curve.
